Measured values taken from patent US12011436B2, “Use of NOX inhibitors for treatment of cancer” (CALLIDITAS THERAPEUTICS SUISSE SA, priority 2017, dated 2024).

Tested on: 4T1 cancer cells mixed with BALB/C breast CAFs
Experiment: 4T1 breast cancer cells co-injected with CAFs into the mammary fat pad of mice, NOX4 inhibitor treatment
Assay type: in vivo, mouse
Conditions: 4T1+CAF tumours
Experimental: Fourteen (14) days after randomization and if the antitumor activity of NOX4/1 compounds alone or in combination is considered sufficient, tumors from 5 satellite mice per group are collected, weighed and the tumor is cut in 2 fragments. One fragment is cut into slices 4 mm thick and fixed in 4% neutral buffered formalin for 24 to 48 h, and then embedded in paraffin (Histosec®, Merck, Darmstadt, Germany). One fragment is embedded in tissue Freezing Medium (Microm Microtech, France), snap-frozen in isopentane cooled over liquid nitrogen and stored at […] until processing. Immunohistochemical stains for CD3, CD4 and CD8 are performed on paraffin-embedded tissue sections using standard techniques (Biodoxis, France). The number of CD3, CD4 and CD8 immunopositive cells per field are counted. When 4T1 cancer cells (0.5×105) are used, those are injected in PBS s.c into the upper mammary fat pad of female mice aged 8-10 weeks. Cells are either injected on their own, or mixed with 2.5×105 BALB/C breast CAFs isolated from transgenic BALBneuT spontaneous stromal-rich breast tumours. […] GKT137831 was reconstituted in 1.2% Methyl Cellulose (Sigma) with 0.1% Polysorbate (Sigma) and administered by oral gavage 5×/week at 40 mg/kg. Control mice received vehicle by oral gavage. For longer term dosing, 15 initial doses were given as stated, but reduced to 3×/week for 3 weeks at 50 mg/kg, then 2×/week for 3 weeks at 60 mg/kg. The anti PD-1 antibody (Bioxcell; RMP1-14) was given via […]) injection. 300 μg of the antibody or the IgG2a isotype control (Bioxcell) were given when tumours were palpable every other day, totaling 3 doses. For the data presented under FIG. 1, tumours were measured every 2-3 days by electronic skin caliper from longest width and length. Tumour volume was calculated using the formula 4/3πXr3, where the radius (r) was calculated from tumour width and length measurement to provide an average diameter value. Mice were randomized into groups based on tumour volume so that no statistical difference occurred between mean tumour volumes between groups before treatments began. […]

## CN(C)c1cccc(-c2c3c(=O)n(-c4ccccc4Cl)[nH]c3cc(=O)n2C)c1 [GKT, 2-(2-chlorophenyl)-4-[3-(dimethylamino)phenyl]-5-methyl-1H-pyrazolo [4,3-c]pyridine-3,6(2H,5H)-dione]
FIG. 1B
  SMA-positive CAF in tumours (immunochemistry): significantly reduces
FIG. 1C
  CD8+ T-cell location in tumour (immunochemistry): relocation of CD8+ T-cells from the tumour edge into the centre of the tumour
Day 15, after 8 days of treatment, oral gavage 40 mg/kg 5x/week, FIG. 1A
  tumour volume vs vehicle alone: significantly smaller
